Where two headings read alike, the source gives them in different places.
How the values were obtained:
[1] = test system: SARS-CoV-2 pseudovirus; type: cell-based, SARS-CoV-2; HEK293 cells expressing ACE2
[2] = test system: MERS-pseudovirus; type: cell-based, MERS-COV; Huh7 cells
[3] = test system: NAADP-evoked Ca2+ release (TPC activity); type: biochemical, sea urchin
[4] = test system: ciliary beat frequency; conditions: cited from earlier work
[5] = test system: mast cell degranulation; conditions: human lung; cited from earlier work

Compound: CC(=O)OCOC(=O)CN(CC(=O)OCOC(C)=O)c1ccccc1OCCOc1ccccc1N(CC(=O)OCOC(C)=O)CC(=O)OCOC(C)=O [BAPTA-AM]
- inhibition of SARS-CoV-2 pseudovirus infectivity [1]: nearly complete inhibition

Compound: ryanodine
- inhibition of SARS-CoV-2 pseudovirus infectivity ([1]; 10 μM): no effect

Compound: xestospongin
- inhibition of SARS-CoV-2 pseudovirus infectivity ([1]; 10 μM): no effect

Compound: NCCOB(c1ccccc1)c1ccccc1 [2-APB]
- inhibition of SARS-CoV-2 pseudovirus infectivity ([1]; 10 μM): no effect

Compound: OCc1cc(C(O)CNCCCCCCOCCCCc2ccccc2)ccc1O (racemic) [salmeterol, (RS)-2-(hydroxymethyl)-4-{1-hydroxy-2-[6-(4-phenylbutoxy)hexylamino]ethyl}phenol]
- inhibition of MERS-COV infectivity in a pseudovirus translocation assay [2]: potent and penetrant
- inhibition of TPC activity [3]: able to inhibit
- rank for TPC inhibition (amplitude of NAADP-evoked Ca2+ release, rank #1 = greatest inhibition) [3]: 16/1534
- ciliary beat frequency [4]: rapid and prolonged increase
- inhibition of SARS-CoV-2 pseudovirus infectivity ([1]; 10 μM): pronounced inhibition
- mast cell degranulation [5]: potent and long-lasting inhibition

Reference: US12329727B2, “Use of salmeterol as an anti-coronaviral agent” (priority 2020, dated 2025)
